Assay results: EP0933027A1, “Methods and compositions for protecting animals and humans against attack and infestation by arthropod and helminth parasites” (American Cyanamid Company, priority 1998, dated 1999)

Experiments:
[1] = test system: Pyrethroid-susceptible horn fly (Haematobia irritans); test: Treated filter paper test against adult pyrethroid-susceptible horn fly; settings: corrected for control mortality
Description: (§1) Test doses are expressed as µg of test substance per cm^2 of filter paper. • 1) Prepare solutions of test compound in acetone such that 800 or 1000 µL contains the amount necessary to obtain the desired dose rate. • 2) Pipette 800 or 1000 µL of test solution onto filter paper. • 3) Filter papers are dried under a fume hood. • 4) When dry, filter papers are placed in the petri dish tops. Dishes are generally held about 24 hours before test organism is added. • 5) Two- to five-day-old horn flies (pyrethroid-susceptible or -resistant) which have had two or more blood meals are used in the assay. Flies are collected into a small vial from the holding cage. Vials are then chilled in a freezer for about 4 minutes to immobilize the flies. Immobilized flies are then distributed to petri dish bottoms, 12 to 25 flies per dish, then dishes are closed and inverted. • 6) As soon as the flies become mobile (about 5 minutes), they are examined to detect any flies that are dead or injured. This number is subtracted from total number of flies in the dish. • 7) Petri dishes are held at room temperature and examined at the desired time intervals which might be 10 minutes to 6 hours. • 8) All dead flies are recorded at each examination time. […] 10) Percent mortality at any time period is calculated using the following formula: (Number of dead flies - number dead @ 5 min)/(Total number of flies - number dead @ 5 min)x 100 [formula] Percent mortality is then corrected for control mortality using Abbot's formula.

[2] = test system: Pyrethroid-resistant horn fly (Haematobia irritans); test: Treated filter paper test against adult pyrethroid-resistant horn fly; settings: corrected for control mortality
Description: as §1

Molecule `F/C(=C\Cc1ccc(F)c(Oc2ccccc2)c1)C(c1ccc(Cl)cc1)C1CC1` (centres unmarked) [Compound 5, 1-[1-(p-Chlorophenyl)-2-fluoro-4-(4-fluoro-3-phenoxyphenyl)-2-butenyl]cyclopropane, (Z)-] has a mortality at 0.156 µg/cm2 ([1]; dose 0.1560 µg/cm^2, 6 hours) of 0%, a mortality at 0.3125 µg/cm2 ([1]; dose 0.3125 µg/cm^2, 6 hours) of 5% and a mortality at 0.625 µg/cm2 ([1]; dose 0.625 µg/cm^2, 6 hours) of 27%. It also gave a mortality at 1.25 µg/cm2 ([1]; dose 1.25 µg/cm^2, 6 hours) of 88%, a mortality at 2.5 µg/cm2 ([1]; dose 2.50 µg/cm^2, 6 hours) of 98% and a mortality at 5 µg/cm2 ([1]; dose 5.00 µg/cm^2, 6 hours) of 100%. For the same molecule, the mortality at 1.25 µg/cm2 ([2]; dose 1.25 µg/cm^2, 6 hours) was 0%, the mortality at 2.5 µg/cm2 ([2]; dose 2.50 µg/cm^2, 6 hours) was 1% and the mortality at 5 µg/cm2 ([2]; dose 5.00 µg/cm^2, 6 hours) was 7%. For the same molecule, the mortality at 10 µg/cm2 ([2]; dose 10.0 µg/cm^2, 6 hours) was 33% and the mortality at 20 µg/cm2 ([2]; dose 20.0 µg/cm^2, 6 hours) was 93%.
